Results reported in patent US20200089110A1, “SULFONIC ACID DERIVATIVE COMPOUNDS AS PHOTOACID GENERATORS IN RESIST APPLICATIONS” (Heraeus Precious Metals North America Daychem LLC, priority 2015, published 2020).

Key:
Solubility in PGMEA = format: physicochemical; conditions: in propylene glycol monomethyl ether acetate (PGMEA)
[1] = Photolysis of PAGs in acetonitrile under 365 nm irradiation (photoreactivity); format: physicochemical; conditions: for Solubility × Photoreactivity: product of solubility in PGMEA and relative photoreactivity at 365 nm
Text: A photoresist composition typically comprises PAG, polymers, additives and solvents. The performance of a photoresist composition is mainly dependent on the properties of the PAG and polymer components. To formulate a high-performance photoresist composition, more photosensitive PAGs are typically selected. The photosensitivity of a PAG is typically directly related to the strength of the generated acid and the photoreactivity of the PAG. For a series of PAGs producing the same latent acid, their photosensitivity is related only to their photoreactivity. Thus evaluating the photosensitivity of a PAG can be achieved by studying its photoreactivity. The higher photoreactivity, the higher photosensitivity. The photoreactivity can be investigated by photolysis of a PAG in its dilute solution under low exposure intensity (to avoid side reactions which don't generate the desired acid). The change in the concentration of a PAG upon irradiation can be determined by measuring the absorbance of the PAG at the maximum absorption wavelength.
(§1) Photolysis of PAGs was carried out in acetonitrile in air at room temperature. The sodium salt of tetrabromophenol blue (TBPBNa), an acid indicator dye, which has a maximum absorption at 618 nm, was purchased from Aldrich (indicator grade) and used as received. Irradiation of the solution of the PAGs (3×10^−5 M) was performed using a Cole-Parmer UV 15 W bench lamp (EW-97605-50) at 365 nm. Light intensity was measured using an UV Power Puck II radiometer from EIT Inc. UV-Vis spectra were run on a Thermo Scientific Evolution 201 UV-visible spectrophotometer.
Photolysis of NIT, comparative compound A, D-1, and D-2 was examined in acetonitrile. The absorption band at 397 nm gradually decreases upon irradiation, indicating the progress of photoreaction with the increase of exposure dose of energy. Assuming the photoreaction is first-order, plot of natural log of changes in absorbance with exposure dose of energy gives the photoreaction constant of D-2 (i.e. the slope of the linear trendline) (FIG. 2). The photoreaction constants of other compounds were similarly determined under the same irradiation condition.
Comparing the constants of A, D-1, and D-2 with that of NIT normalized to one gives the relative photoreactivity (Table 7). The photoreactivity for PAG (e.g. D-2) according to the present disclosure is ˜8 times greater than that of NIT and ˜3 times greater than that of Comparative Compound A. The formation of acid upon irradiation was confirmed by observing the spectral changes of the acid indicator, TBPBNa at 618 nm.

[2] = UV-Vis spectra of PAG compounds; format: physicochemical; conditions: for absorbance at i-line of a mercury lamp: compared with NIT (FIG. 4); for strong absorption band: 0.001% w/v (FIG. 4)
Procedure: FIG. 4 is a UV-Vis spectra of compounds NIT, D-1, and D-2 in PGMEA and D-4 in acetonitrile (0.001% w/v).
as §1

| SMILES | Solubility (w/w %) in PGMEA (Solubility in PGMEA) [% w/w %] | Solubility × Photoreactivity [1] [%] | absorbance at i-line of a mercury lamp [2] | strong absorption band ([2]; in PGMEA) [nm] | melting point [°C] | absorption band ([1]; in acetonitrile, band decreases upon irradiation (FIG. 1)) [nm] | g-line absorbance ([2]; FIG. 4) | strong absorption band ([2]; in acetonitrile) [nm] |
| --- | --- | --- | --- | --- | --- | --- | --- | --- |
| CCC(C)Oc1ccc(/C=C/c2ccc3c4c(cccc24)C(=O)N(OS(=O)(=O)C(F)(F)F)C3=O)cc1 (stereo not drawn) | 4.3 | 37.4 | – | – | – | – | – | – |
| O=C1c2cccc3c(C#Cc4ccccc4)ccc(c23)C(=O)N1OS(=O)(=O)C(F)(F)F [Comparative Compound A, reference compound] | 1.0 | 2.5 | – | – | – | – | – | – |
| CCCCOC(=O)/C=C/c1ccc2c3c(cccc13)C(=O)N(OS(=O)(=O)C(F)(F)F)C2=O [Compound D-1] | 6.9 | 12.4 | much larger than that of NIT | 363 | 151 to 152 | – | – | – |
| O=C1c2cccc3c(/C=C/c4ccccc4)ccc(c23)C(=O)N1OS(=O)(=O)C(F)(F)F [Compound D-2] | 1.6 | 13.1 | much larger than that of NIT | 397 | 182 to 184 | 397 | – | – |
| CC(C)(C)c1ccc(/C=C/c2ccc3c4c(cccc24)C(=O)N(OS(=O)(=O)C(F)(F)F)C3=O)cc1 [Compound D-3] | – | – | – | – | 227 to 229 | – | – | – |
| CC(C)(C)Oc1ccc(/C=C/c2ccc3c4c(cccc24)C(=O)N(OS(=O)(=O)C(F)(F)F)C3=O)cc1 [Compound D-4] | – | – | much larger than that of NIT | – | – | – | large | 415 |
| O=C1c2cccc3cccc(c23)C(=O)N1OS(=O)(=O)C(F)(F)F [NIT, N-Hydroxynaphthalimide triflate, reference compound] | 1.7 | 1.7 | – | – | – | – | – | – |
